# According to US8507411B2, “Neoglycorandomization and digitoxin analogs” (priority 2004, dated 2013):
# Read-outs that look alike come from different tables or passages of the source.
# Key:
# MCF7 = assay: High-throughput calcein AM cytotoxicity assay, MCF7; format: cell-based, human; conditions: MCF7 cells; read-out: IC50, MCF7
# Text: (§1) Standard errors are depicted with error bars.
# Hep3B = assay: High-throughput calcein AM cytotoxicity assay, Hep3B; format: cell-based, human
# Text: as §1
# SK-OV-3 = assay: cells; format: cell-based, human; conditions: SK-OV-3 cells; read-out: IC50, SK-OV-3
# Summary of the method: (§2)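 Plated cells received compound dilutions after 1 h attachment and sat 72 h at 37 °C, 5% CO2. Serum was washed off with PBS before calcein AM staining, since serum esterases interfere. Four-parameter fits with variable Hill slope gave IC50s.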
# NCI/ADR-RES = assay: cells; format: cell-based, human; conditions: NCI/ADR-RES cells; read-out: IC50, NCI/ADR-RES
# Summary of the method: as §2
# SF-268 = assay: cells; format: cell-based, human; conditions: SF-268 cells; read-out: IC50, SF-268
# Summary of the method: as §2
# Du145 = assay: High-throughput calcein AM cytotoxicity assay, Du145; format: cell-based, human
# Text: as §1
# A549 = assay: High-throughput calcein AM cytotoxicity assay, A549; format: cell-based, human; conditions: A549 cells; read-out: IC50, A549
# Text: as §1
# NmuMG = assay: cells; format: cell-based, mouse; conditions: NmuMG mouse mammary normal epithelial control line; read-out: IC50, NmuMG
# Summary of the method: as §2
# HCT-116 = assay: High-throughput calcein AM cytotoxicity assay, HCT-116; format: cell-based, human; conditions: HCT-116 cells; read-out: IC50, HCT-116
# Text: as §1
# [1] = tested on: nine human cancer cell lines and a mouse mammary normal epithelial control line; assay: High-throughput calcein AM cytotoxicity assay, whole cell line panel; conditions: for cytotoxicity (in words): cell line panel, 72 h, calcein AM
# Text: In the assay, live cells were distinguished by the presence of a ubiquitous intracellular enzymatic activity which converts the non-fluorescent cell-permeable molecule calcein AM to the intensely fluorescent molecule calcein, which is retained within live cells. The IC50 value for each library member represents at least six replicates of dose-response experiments conducted over five concentrations using two-fold dilutions. […] Standard errors are depicted with error bars. Numerical values and corresponding error values can be found in Table 4. Du145: […]; MCF7: human breast carcinoma; HCT-116: human colon carcinoma, Hep3B: human liver carcinoma; SF-268: human CNS glioblastoma; SK-OV-3: human ovary adenocarcinoma; NCI-H460: human lung carcinoma; A549: human lung adenocarcinoma; NCI/ADR-RES: human breast carcinoma; NmuMG: mouse mammary normal epithelial.
# Cell Culture: All cell lines except NmuMG were maintained in RPMI 1640 medium from InVitrogen (Cat No. 11875-085) supplemented with 10% w/v fetal bovine serum (FBS) from ICN (Cat No. 2916154) and penicillin-streptomycin (PS) (100 U/mL and 100 μg/mL) from InVitrogen (Cat No. 15140-122). NmuMG cells were maintained in DMEM medium from InVitrogen (Cat No. 11965-084) supplemented with 10% w/v fetal bovine serum (FBS) from ICN (Cat No. 2916154), 10 μg/ml insulin (InVitrogen Cat No 12585-014), and penicillin-streptomycin (PS) (100 U/mL and 100 μg/mL) from InVitrogen (Cat No. 15140-122). Cells were harvested by trypsinization using 0.25% w/v trypsin and 0.1% w/v EDTA from InVitrogen (Cat No. 15-050-057) and then counted in a hemocytometer in duplicate with better than 10% agreement in field counts. Cells were plated at a cell density of 10,000-15,000 cells/well of each Corning Costar 96-well black tissue culture treated microtiter plate (Fisher Cat No. 07-200-627). Cells were grown for 1 h at 37° C., with 5% CO2 in a humidified incubator to allow cell attachment to occur before compound addition.
# Library Member Handling and Preparation for Cytotoxicity Assays: Library members were stored at −20° C. under dessicating conditions before the assay. Library member stocks (100×) were prepared in Corning Costar polypropylene 96-well V-bottom polypropylene microtiter plates (Fisher Cat No. 07-200-695). Five serial 1:2 dilutions were made with anhydrous DMSO at 100× the final concentration used in the assay.
# Library Member Addition: The library member-containing plates were diluted 1:10 with complete cell culture media. The 10× stocks (10 μL) were added to the attached cells using a Biomek FX liquid handler (Beckman-Coulter). Library member stocks (10 μL) were added to 90 μL of cells in each plate to insure full mixing of stocks with culture media using a Beckman FX liquid handler with 96-well head.
# Determination of Cytotoxicity: Cells were incubated with the library members for 72 h before fluorescence reading. Test plates were removed from the incubator and washed 1× in sterile PBS to remove serum containing calcium esterases. Calcein AM reagent (30 μL, […]) was added and the cells were incubated for 30 min at 37° C. Plates were read for emission using a fluorescein filter (excitation 485 nm, emission 535 nm).
# IC50 Calculation: For each library member, at least six dose response experiments were conducted. […] To calculate IC50, percent inhibitions were plotted as a function of log [concentration] and then fit to a four-parameter logistic model that allowed for a variable Hill slope using XLfit 4.1.
# Cytotoxicity Assays. All cell lines except NmuMG were maintained in RPMI 1640 medium supplemented with 10% w/v fetal bovine serum (FBS) and penicillin-streptomycin (PS) (100 U/mL and 100 μg/mL).
# NCI-H460 = assay: High-throughput calcein AM cytotoxicity assay, NCI-H460; format: cell-based, human; conditions: NCI-H460 cells; read-out: IC50, NCI-H460
# Text: as §1
# Na+/K+-ATPase [2] = molecular target: Na+/K+-ATPase (Cricetulus griseus, UniProt A0A8C2N4Z0); assay: Non-radioactive rubidium ion uptake assay, CHO-K1 cells; format: cell-based, hamster; conditions: read-out: Na+/K+-ATPase Inhibition IC50
# Protocol: (§3) Na/K-ATPase Assays. Inhibition of Na^+/K^+-ATPase on HEK-293 cells and CHO-K1 cells by the library hits was determined by Aurora Biomed, Inc. using a high-throughput non-radioactive rubidium ion uptake assay. Experiments were conducted in duplicate using three different concentrations. Within each experiment, percent inhibition values at the three concentrations were expressed as the percent reduction of the maximum absorption signal observed for a 0 nM control. IC50 values were determined using the following formula: IC50=[(50−low %)/(high %−low %)]×(high conc.−low conc.)+low conc.
# (§4) To assess how these structural modifications impact the ability of library members to inhibit Na^+/K^+-ATPases, a fundamental activity of cardiac glycosides (Paula, S., et al., (2005) Biochemistry 44, 498-510), library hits 5β, 15β, 23β, 27β, 33β, 40β, and digitoxin (1) were submitted to a non-radioactive rubidium uptake assay to gauge Na^+/K^+-ATPase inhibition in both […] human embryonic kidney cells and CHO-K1 hamster ovary cells (Gill, S. et al., (2004) ASSAY and Drug Development Technologies 2, 535-542).
# Na+/K+-ATPase [3] = molecular target: T1, Na+/K+-ATPase (Homo sapiens, UniProt P05023); assay: Non-radioactive rubidium ion uptake assay, HEK-293 cells; format: cell-based; conditions: read-out: Na+/K+-ATPase Inhibition IC50
# T1 construct: endogenous in cells; host or cells: HEK-293
# Protocol: as §3, §4
# [4] = Hep 3B cells, read-out: IC50, Hep 3B
# [5] = Du145 cells, read-out: IC50, Du145
Compound,IC50 (MCF7) [nM],IC50 (Hep3B; [4]) [nM],IC50 (SK-OV-3) [nM],IC50 (NCI/ADR-RES) [nM],IC50 (SF-268) [nM],IC50 (Du145; [5]) [nM],IC50 (A549) [nM],IC50 (NmuMG) [nM],IC50 (HCT-116) [nM],cytotoxicity (in words) [1],IC50 (NCI-H460) [nM],IC50 ([1]; all cell lines) [nM],"IC50 (Hep3B; Hep3B, 72 h, calcein AM, read-out: IC50) [nM]","IC50 (Du145; Du145, 72 h, calcein AM, read-out: IC50) [nM]",IC50 (Na+/K+-ATPase [2]) [nM],IC50 (Na+/K+-ATPase [3]) [nM]
"CON([C@H]1CC[C@@]2(C)[C@H](CC[C@@H]3[C@@H]2CC[C@]2(C)[C@@H](C4=CC(=O)OC4)CC[C@]32O)C1)[C@H]1OC[C@H](O)[C@H](O)[C@H]1O [32β, L-arabinoside]",2200,1200,3000,650,1000,1100,1700,400,300,relatively inactive,720,,,,,
"CON(C1CCC2(C)C(CCC3C2CCC2(C)C(C4=CC(=O)OC4)CCC32O)C1)C1OC(COC2OC(CO)C(O)C(O)C2O)C(O)C(O)C1O (stereo not drawn) [35β, melibioside]",> 25000,26000,15000,16000,> 25000,27000,> 25000,> 25000,> 25000,,29000,> 25000,,,,
"CON(C1CCC2(C)C(CCC3C2CCC2(C)C(C4=CC(=O)OC4)CCC32O)C1)C1OC(CO)C(O)C(O)C1O [40β, D-taloside]",1400,,490,1900,1300,,410,480,1900,,800,,180,200,180000,> 200000
D-arabinoside [33β],300,260,470,124,160,170,340,120,360,closely mimicked this activity,330,,,,170000,> 300000
L-rhamnoside [16α],> 25000,> 25000,> 25000,> 25000,> 25000,> 25000,> 25000,> 25000,> 25000,,> 25000,,,,,
L-rhamnoside [16β],1800,540,4000,350,3300,170,700,> 25000,900,,330,,,,,
